According to US20070149600A1, “Substituted octahydroisoindoles” (priority 2005, published 2007):
Counter-ions that a name gives are not always drawn.

Biological target: T1, human MCH1R receptor (Homo sapiens, UniProt Q99705)
T1 construct: host or cells: CHO-K1
Assay: Binding assay: [125I]-MCH displacement by SPA on CHO-K1 hMCHR1 membranes
Details: calculated from IC50 using the Cheng Prushoff equation; 0.2 nM [125I]-MCH; CHO-K1 hMCHRI membranes
Experimental: The compounds according to the invention were evaluated for their binding to the human MCH1R receptor by the following method:
Compounds. MCH peptide was purchased from Phoenix pharmaceuticals. (Phe^13, [^125I]Tyr^19 Melanine-Concentrating Hormone (human, mouse, rat) ([^125I]-MCH) was obtained from NEN life Science Products. Inc. Boston, Mass. Wheat germ agglutinine SPA beads (RPNQ 0001) were obtained from Amersham-Pharmacia Biotech. All other reagents used are of highest purity from different resources available. Protein Kits, Micro BCA™ Protein Assay Reagent Kit (Cat No. 23235) were purchased from Piece, Rockford, Ill., USA. […]
The radio labeled [^125I]-MCH was diluted with cold MCH in ratio 1:3. […] The results were calculated using Excel program and the curves were drawn using a program GraphPad Prism.
For screening of the substances the amount of the beads used was 0.25 mg/well and the amount of the membrane protein was 4 μg/well. […] The samples were counted using Microbeta counter (Wallac Trilux 1450 Micro beta counter, Wallac, Finland) for 2 minutes and the results were calculated by using the computer program Activity Base.
The Ki value is calculated from IC50 using the Cheng Prushoff equation: Ki=IC50(1+[S]/Km) [Cheng, Y. C.; Prushoff, W. H. Biochem. Pharmacol. 1973, 22, 3099-3108].

T1 sequence (Q99705 whole entry): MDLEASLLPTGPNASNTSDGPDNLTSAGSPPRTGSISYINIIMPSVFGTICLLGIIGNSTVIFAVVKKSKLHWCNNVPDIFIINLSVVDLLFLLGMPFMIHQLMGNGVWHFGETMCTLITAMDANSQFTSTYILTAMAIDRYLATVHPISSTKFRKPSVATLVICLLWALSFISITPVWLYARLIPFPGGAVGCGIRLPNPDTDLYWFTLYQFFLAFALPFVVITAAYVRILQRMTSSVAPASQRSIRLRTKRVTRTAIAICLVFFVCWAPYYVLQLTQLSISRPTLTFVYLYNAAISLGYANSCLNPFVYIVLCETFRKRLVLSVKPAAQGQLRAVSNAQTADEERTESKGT

SMILES | Ki
COc1ccc([C@@]23CC[C@@H](NC(=O)c4ccc(C(F)(F)F)cc4F)C[C@@H]2CN(C)C3)cc1OC (relative stereo) [Example 44, N-[(3aS*,5R*,7aR*)-7a-(3,4-Dimethoxyphenyl)-2-methyloctahydro-1H-isoindol-5-yl]-2-fluoro-4-(trifluoromethyl)benzamide trifluoroacetate] | 288 nM
COc1ccc([C@@]23CC[C@@H](NC(=O)Nc4cc(C)cc(C)c4)C[C@@H]2CN(C)C3)cc1OC (relative stereo) [Example 48, N-[(3 aS*,5R*,7aR*)-7a-(3,4-Dimethoxyphenyl)-2-methyloctahydro-1H-isoindol-5-yl]-N′-(3,5-dimethylphenyl)urea trifluoroacetate] | 74 nM
